One experiment concerns the target T1, D1 dopamine receptors (Rattus norvegicus, UniProt P18901).
T1 construct: Striatal samples from the brains of male Charles River CD rats; from tissue; host or cells: striatum of male Charles River CD rats (washed membrane pellet)
As to the kind of experiment: D1 dopamine receptor binding: inhibition of tritiated SCH 23390 binding, rat striatal samples. More on the design: species or system rat (male Charles River CD rats). Particulars: rat striatum, tritiated SCH 23390, pH 7.4, 37° C., 30 minutes. The method, then:
(§1) Striatal samples from the brains of male Charles River CD rats weighing between 140-250 g were homogenised in ice-cold 50 mM Tris-HCl buffer (pH 7.4 when measured at 25° C. for D1 binding assays and pH 7.7 when measured at 25° C. for D2 binding assays) and centrifuged for 10 minutes (at 21,000 g when used for D1binding assay and 40,000 g when used for D2binding assays). The pellet was resuspended in the same buffer, again centrifuged and the final pellet stored at -80° C. Before each test the pellet was resuspended in 50 mM Tris-HCl buffer containing 120 mM NaCl, 5 mM KCl, 2 mM CaCl2 and 1 mM MgCl2 at pH 7.4 for the D1 binding assays and at pH 7.7 with the addition of 6 mM ascorbic acid for the D2 binding assays. Aliquots of this suspension were then added to tubes containing the ligand and either the compound under test or buffer. For the D1 binding assays the ligand was tritiated SCH 23390 and the mixture was incubated at 37° C. for 30 minutes before the incubation was terminated by rapid filtration. For the D2 binding assays the ligand was tritiated (S)-sulpiride and the mixture was incubated at 4° C. for 40 minutes before the incubation was terminated by rapid filtration. Non-specific binding was determined experimentally by the addition of saturating concentrations of chloropromazine or spiroperidol for D1 and D2 receptors respectively.
(§2) The filters were washed with ice-cold Tris-HCl buffer and dried. The filters were punched out on to vials containing scintillation fluid and were left for about 20 hours before being counted by scintillation spectrophotometry. Displacement curves were produced over a range of concentrations of the compound under test and the concentration which gave a 50% inhibition of specific binding (IC50) obtained from the curve. The inhibition coefficient Ki was then calculated using the formula [formula] in which [ligand] is the concentration of the tritiated ligand used and KD is the equilibrium dissociation constant for the ligand.
(§3) In some cases Ki values for D2 binding were estimated from single concentration data by the application of the Langmuir adsorption isotherm equation. These cases are indicated by an "E" in the last two columns of Table I. In other cases it was not possible to determine or estimate the Ki and the Ki value is given as greater than (>) that which would result from the application of the above formula to the highest concentration which displaced ≤50% of the ligand.

Another experiment has as its target T2, D2 dopamine receptors (Rattus norvegicus, UniProt P61169).
T2 construct: Striatal samples from the brains of male Charles River CD rats; from tissue; host or cells: striatum of male Charles River CD rats (washed membrane pellet)
As to the kind of experiment: D2 dopamine receptor binding: inhibition of tritiated (S)-sulpiride binding, rat striatal samples. The conditions noted are these: for pKi: rat striatum, tritiated (S)-sulpiride; for Ki for D2 / Ki for D1: ratio to two significant figures. Further details: species or system rat (male Charles River CD rats). The method, then: as §1, §2, §3

Where [1] appears, read: pH 7.7, 4° C., 40 minutes, > = from highest concentration which displaced ≤50% of the ligand, read-out: Ki for D2 binding.
Where [2] appears, read: estimated from single concentration data by Langmuir adsorption isotherm equation, read-out: Ki for D2 binding (marked E).

pKi: −log10 of the molar value. Like-named read-outs stand apart in the source and are kept apart here. Where only a bound is given, the exact number is not on record here.

T2 sequence (P61169 whole entry): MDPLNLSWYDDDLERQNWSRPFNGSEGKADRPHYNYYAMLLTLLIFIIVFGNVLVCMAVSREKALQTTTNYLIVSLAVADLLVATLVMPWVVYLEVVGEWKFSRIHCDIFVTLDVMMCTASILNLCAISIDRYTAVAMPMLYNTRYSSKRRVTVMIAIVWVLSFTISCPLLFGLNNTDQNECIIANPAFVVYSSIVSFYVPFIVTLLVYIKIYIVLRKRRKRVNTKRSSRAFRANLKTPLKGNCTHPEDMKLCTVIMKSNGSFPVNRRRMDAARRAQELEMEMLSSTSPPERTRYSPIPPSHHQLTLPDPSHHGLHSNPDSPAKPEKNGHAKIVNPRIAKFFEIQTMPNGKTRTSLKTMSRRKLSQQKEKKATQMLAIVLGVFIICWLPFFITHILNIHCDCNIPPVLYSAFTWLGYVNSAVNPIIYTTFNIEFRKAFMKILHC
T1 sequence (P18901 whole entry): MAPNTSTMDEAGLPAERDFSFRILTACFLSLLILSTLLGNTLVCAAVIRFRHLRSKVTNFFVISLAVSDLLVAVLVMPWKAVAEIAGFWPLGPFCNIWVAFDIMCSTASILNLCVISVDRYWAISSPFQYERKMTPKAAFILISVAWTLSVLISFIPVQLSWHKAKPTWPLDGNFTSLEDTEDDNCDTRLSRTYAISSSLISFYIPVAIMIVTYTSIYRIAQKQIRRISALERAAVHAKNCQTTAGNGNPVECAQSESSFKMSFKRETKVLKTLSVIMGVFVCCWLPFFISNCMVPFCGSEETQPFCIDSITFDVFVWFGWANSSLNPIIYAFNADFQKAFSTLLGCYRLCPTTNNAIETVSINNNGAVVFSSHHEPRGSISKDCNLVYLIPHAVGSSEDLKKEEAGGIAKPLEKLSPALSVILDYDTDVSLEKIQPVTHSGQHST

For the molecule `CN1CCc2cc(O)c(O)cc2C1C1(c2ccc(Cl)cc2)CCCC1` (centres unmarked) [Example 14, 1-[1-(4-chlorophenyl)cyclopentyl]-6,7-dihydroxy-2-methyl-1,2,3,4-tetrahydroisoquinoline], the negative logarithm of the Ki (pKi) on D1 dopamine receptors was 6.92; on D2 dopamine receptors (setting [1]), 5.32. Further, the “Ki for D2 / Ki for D1” value on D2 dopamine receptors was 40.

Turning to `CN1CCc2cc(O)c(O)cc2C1C1(c2ccccc2)CCCC1` (centres unmarked) [Example 15, 6,7-dihydroxy-2-methyl-1-(1-phenylcyclopentyl)-1,2,3,4-tetrahydroisoquinoline], the figures for the pKi at D1 dopamine receptors and on D2 dopamine receptors (setting [1]) were 6.70 and less than 5.30, respectively. Also, the “Ki for D2 / Ki for D1” value on D2 dopamine receptors is greater than 25.

As for `CN1CCc2cc(O)c(O)cc2C1C1(c2ccc(Cl)cc2)CCCCC1` (centres unmarked) [Example 16, 1-[1-(4-chlorophenyl)cyclohexyl]-6,7-dihydroxy-2-methyl-1,2,3,4-tetrahydroisoquinoline], the negative logarithm of the Ki (pKi) is 6.74 on D1 dopamine receptors and 5.49 on D2 dopamine receptors (setting [1]). For the same molecule, at D2 dopamine receptors, the “Ki for D2 / Ki for D1” value was 18.

In the case of `CN1CCc2cc(O)c(O)cc2C1C1(c2ccc(Br)cc2)CCC1` (centres unmarked) [Example 17, 1-[1-(4-bromophenyl)cyclobutyl]-6,7-dihydroxy-2-methyl-1,2,3,4-tetrahydroisoquinoline], the values for the negative logarithm of the Ki (pKi) on D1 dopamine receptors and at D2 dopamine receptors (setting [1]) were 8.41 and 5.05, respectively. For the same molecule, on D2 dopamine receptors, the “Ki for D2 / Ki for D1” value is on record as 2300.

In the case of `CN1CCc2cc(O)c(O)cc2C1C1(c2ccc(Cl)c(Cl)c2)CCC1` (centres unmarked) [Example 18, 1-[1-(3,4-dichlorophenyl)cyclobutyl]-6,7-dihydroxy-2-methyl-1,2,3,4-tetrahydroisoquinoline], the negative logarithm of the Ki (pKi) at D1 dopamine receptors was 7.08; at D2 dopamine receptors (setting [1]) it was 5.36. Also, the “Ki for D2 / Ki for D1” value at D2 dopamine receptors is on record as 53.

Take `CN1CCc2cc(O)c(O)cc2C1C1(c2ccc(O)cc2)CCCC1` (centres unmarked) [Example 19, 6,7-dihydroxy-1-[1-(4-hydroxyphenyl)cyclopentyl]-2-methyl-1,2,3,4-tetrahydroisoquinoline]: the negative-log Ki (pKi) is 6.72 on D1 dopamine receptors and 5.15 at D2 dopamine receptors (setting [2]).

For the molecule `CN1CCc2cc(Br)c(O)cc2C1C1(c2ccccc2)CCC1` (centres unmarked) [Example 20, 6-bromo-7-hydroxy-2-methyl-1-(1-phenylcyclobutyl)-1,2,3,4-tetrahydrosoqunoline], the negative-log Ki (pKi) on D1 dopamine receptors is 7.51; at D2 dopamine receptors (setting [1]), less than 5.30. In addition, the “Ki for D2 / Ki for D1” value on D2 dopamine receptors was greater than 160.

Consider `CN1CCc2cc(O)c(O)cc2C1C1(c2ccccc2)CC(C)(C)C1` (centres unmarked) [Example 21, 6,7-dihydroxy-2-methyl-1-(3,3-dimethyl-1-phenylcyclobutyl)-1,2,3,4-tetrahydroisoquinoline], for which the figures for the pKi on D1 dopamine receptors and on D2 dopamine receptors (setting [1]) were 6.70 and less than 5.30, respectively. For the same molecule, on D2 dopamine receptors, the “Ki for D2 / Ki for D1” value is reported as greater than 25.

Take `CN1CCc2cc(Cl)c(O)cc2C1C1(c2ccccc2Cl)CCC1` (centres unmarked) [Example 22, 6-chloro-1-[1-(2-chlorophenyl)cyclobutyl]-7-hydroxy-2-methyl-1,2,3,4-tetrahydroisoquinoline]: the pKi on D1 dopamine receptors is 8.64; at D2 dopamine receptors (setting [1]), 5.74. Also, the “Ki for D2 / Ki for D1” value on D2 dopamine receptors turned out to be 780.

As for `CN1CCc2cc(O)c(O)cc2C1C1(c2ccccc2C(F)(F)F)CCC1` (centres unmarked) [Example 23, 6,7-dihydroxy-2-methyl-1-[1-(2-trifluoromethylphenyl)cyclobutyl]-1,2,3,4-tetrahydroisoquinoline], the pKi on D1 dopamine receptors is 7.74; on D2 dopamine receptors (setting [1]), 4.82. For the same molecule, the “Ki for D2 / Ki for D1” value on D2 dopamine receptors is on record as 830.

As for `CN1CCc2cc(F)c(O)cc2C1C1(c2ccccc2Cl)CCC1` (centres unmarked) [Example 24, 1-[1-(2-chlorophenyl)cyclobutyl]-6-fluoro-7-hydroxy-2-methyl-1,2,3,4-tetrahydroisoquinoline], the results for the pKi on D1 dopamine receptors and at D2 dopamine receptors (setting [1]) were 8.72 and 5.77, respectively. Further, the “Ki for D2 / Ki for D1” value at D2 dopamine receptors is listed as 890.

Consider `CN1CCc2cc(F)c(O)cc2C1C1(c2ccccc2)CCC1` (centres unmarked) [Example 25, 6-fluoro-7-hydroxy-2-methyl-1-(1-phenylcyclobutyl)-1,2,3,4-tetrahydroisoquinoline], for which the pKi on D1 dopamine receptors was 7.72; at D2 dopamine receptors (setting [1]) it was 2.27. In addition, at D2 dopamine receptors, the “Ki for D2 / Ki for D1” value turned out to be 280000.

Regarding `CN1CCc2c(O)cccc2C1C1(c2ccc(Cl)cc2)CCC1` (centres unmarked) [Example 26, 1-[1-(4-chlorophenyl)cyclobutyl]-5-hydroxy-2-methyl-1,2,3,4-tetrahydroisoquinoline], the pKi was 6.25 on D1 dopamine receptors and 5.15 on D2 dopamine receptors (setting [2]).

Consider `CN1CCc2cc(O)c(O)cc2C1C1(c2ccccc2)CC1` (centres unmarked) [Example 27, 6,7-dihydroxy-2-methyl-1-(1-phenylcyclopropyl)-1,2,3,4-tetrahydroisoquinoline], for which the results for the pKi on D1 dopamine receptors and on D2 dopamine receptors (setting [1]) were 6.72 and 5.24, respectively. Besides, on D2 dopamine receptors, the “Ki for D2 / Ki for D1” value is 30.

As for `CN1CCc2cc(Cl)c(O)cc2C1C1(c2ccccc2)CCC1` (centres unmarked) [Example 28, 6-chloro-7-hydroxy-2-methyl-1-(1-phenylcyclobutyl)-1,2,3,4-tetrahydroisoquinoline], the pKi at D1 dopamine receptors is 7.96; on D2 dopamine receptors (setting [1]) it was 5.44. In addition, on D2 dopamine receptors, the “Ki for D2 / Ki for D1” value is recorded as 330.

With `CN1CCc2cc(O)c(O)cc2C1C1(c2ccccc2)CCCCC1` (centres unmarked) [Example 29, 6,7-dihydroxy-2-methyl-1-(1-phenylcyclohexyl)-1,2,3,4-tetrahydroisoquinoline], the pKi was 6.92 on D1 dopamine receptors and 5.15 on D2 dopamine receptors (setting [2]).

For `CN1CCc2cc(Cl)c(O)cc2C1C1(c2ccccc2)CC(C)(C)C1` (centres unmarked) [Example 30, 6-chloro-7-hydroxy-2-methyl-1-(3,3-dimethyl-1-phenylcyclobutyl)-1,2,3,4-tetrahydroisoquinoline], the negative-log Ki (pKi) at D1 dopamine receptors is 7.18; on D2 dopamine receptors (setting [1]), less than 5.30. Moreover, the “Ki for D2 / Ki for D1” value at D2 dopamine receptors is recorded as greater than 76.

For the molecule `CN1CCc2cc(O)c(Cl)cc2C1C1(c2ccccc2)CCC1` (centres unmarked) [Example 31, 7-chloro-6-hydroxy-2-methyl-1-(1-phenylcyclobutyl)-1,2,3,4-tetrahydroisoquinoline], the negative logarithm of the Ki (pKi) at D1 dopamine receptors was 6.27; on D2 dopamine receptors (setting [2]), 4.96.

Consider `CN1CCc2c(cc(O)c(O)c2Cl)C1C1(c2ccccc2)CCC1` (centres unmarked) [Example 32, 5-chloro-6,7-dihydroxy-2-methyl-1-(1-phenylcyclobutyl)-1,2,3,4-tetrahydroisoquinoline], for which the pKi is 6.85 on D1 dopamine receptors and less than 5.30 on D2 dopamine receptors (setting [1]). For the same molecule, the “Ki for D2 / Ki for D1” value on D2 dopamine receptors was greater than 36.

With `CN1CCc2cc(O)c(O)cc2C1C1(c2cccc(Cl)c2)CCC1` (centres unmarked) [Example 33, 1-[1-(3-chlorophenyl)cyclobutyl]-6,7-dihydroxy-2-methyl-1,2,3,4-tetrahydroisoquinoline], the pKi on D1 dopamine receptors is 7.19; at D2 dopamine receptors (setting [1]) it was 4.64. In addition, on D2 dopamine receptors, the “Ki for D2 / Ki for D1” value is given as 350.

With `CN1CCc2cc(F)c(O)cc2C1C1(c2ccccc2Br)CCC1` (centres unmarked) [Example 34, 1-[1-(2-bromophenyl)cyclobutyl]-6-fluoro-7-hydroxy-2-methyl-1,2,3,4-tetrahydroisoquinoline], the values for the pKi at D1 dopamine receptors and on D2 dopamine receptors (setting [1]) were 8.74 and 5.11, respectively. Besides, the “Ki for D2 / Ki for D1” value on D2 dopamine receptors was determined as 4300.

With `COc1cc2c(cc1O)C(C1(c3ccccc3Cl)CCC1)N(C)CC2` (centres unmarked) [Example 35, 1-[1-(2-chlorophenyl)cyclobutyl]-7-hydroxy-6-methoxy-2-methyl-1,2,3,4-tetrahydroisoquinoline], the results for the pKi on D1 dopamine receptors and on D2 dopamine receptors (setting [1]) were 8.89 and 3.62, respectively. The “Ki for D2 / Ki for D1” value at D2 dopamine receptors was determined as 180000.

As to `COc1cc2c(cc1O)C(C1(c3ccccc3)CCCCC1)N(C)CC2` (centres unmarked) [Example 36, 7-hydroxy-6-methoxy-2-methyl-1-(1-phenylcyclohexyl)-1,2,3,4-tetrahydroisoquinoline], the values for the pKi on D1 dopamine receptors and on D2 dopamine receptors (setting [1]) were 7.21 and 5.36, respectively. In addition, the “Ki for D2 / Ki for D1” value at D2 dopamine receptors stood at 71.

For `COc1cc2c(cc1O)C(C1(c3ccc(Cl)cc3Cl)CCC1)N(C)CC2` (centres unmarked) [Example 37, 1-[1-(2,4-dichlorophenyl)cyclobutyl]-7-hydroxy-6-methoxy-2-methyl-1,2,3,4-tetrahydroisoquinoline], the pKi was 9.22 on D1 dopamine receptors and 5.28 on D2 dopamine receptors (setting [1]). Besides, the “Ki for D2 / Ki for D1” value at D2 dopamine receptors is 8800.

In the case of `COc1cc2c(cc1O)C(C1(c3ccccc3OC)CCC1)N(C)CC2` (centres unmarked) [Example 38, 7-hydroxy-6-methoxy-1-[1-(2-methoxyphenyl)cyclobutyl]-2-methyl-1,2,3,4-tetrahydroisoquinoline], the negative logarithm of the Ki (pKi) at D1 dopamine receptors is 8.39; on D2 dopamine receptors (setting [1]), 5.47. Moreover, the “Ki for D2 / Ki for D1” value at D2 dopamine receptors came to 830.

The values are drawn from patent US5519034A, “Tetraisoquinoline compounds which have useful pharmaceutical utility” (The Boots Company PLC, priority 1991, dated 1996).
